The record followed here is patent US20240398811A1, “PRC2 INHIBITORS FOR USE IN TREATING BLOOD DISORDERS” (ORIC Pharmaceuticals, Inc., priority 2021, published 2024).

As usually defined, the IC50 is the concentration that gives 50% inhibition. Low readings indicate greater potency in that assay, high ones weaker potency in that assay.

Some results are limits rather than exact numbers.

Sequence of purified human, His-tagged PRC2 complex (O75530 whole entry): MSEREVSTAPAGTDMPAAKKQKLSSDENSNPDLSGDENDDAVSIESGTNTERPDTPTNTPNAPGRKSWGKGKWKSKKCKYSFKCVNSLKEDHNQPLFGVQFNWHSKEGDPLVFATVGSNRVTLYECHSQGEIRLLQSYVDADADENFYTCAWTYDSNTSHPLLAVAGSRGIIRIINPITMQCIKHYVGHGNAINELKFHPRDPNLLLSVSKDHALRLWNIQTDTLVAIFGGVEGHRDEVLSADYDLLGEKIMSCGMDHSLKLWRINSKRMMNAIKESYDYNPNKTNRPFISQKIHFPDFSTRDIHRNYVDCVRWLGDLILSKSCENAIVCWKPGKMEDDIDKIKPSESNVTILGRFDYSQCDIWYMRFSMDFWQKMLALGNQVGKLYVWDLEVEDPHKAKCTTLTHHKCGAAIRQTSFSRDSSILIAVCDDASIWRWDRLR
Sequence of purified human, His-tagged PRC2 complex (Q15910 whole entry partner): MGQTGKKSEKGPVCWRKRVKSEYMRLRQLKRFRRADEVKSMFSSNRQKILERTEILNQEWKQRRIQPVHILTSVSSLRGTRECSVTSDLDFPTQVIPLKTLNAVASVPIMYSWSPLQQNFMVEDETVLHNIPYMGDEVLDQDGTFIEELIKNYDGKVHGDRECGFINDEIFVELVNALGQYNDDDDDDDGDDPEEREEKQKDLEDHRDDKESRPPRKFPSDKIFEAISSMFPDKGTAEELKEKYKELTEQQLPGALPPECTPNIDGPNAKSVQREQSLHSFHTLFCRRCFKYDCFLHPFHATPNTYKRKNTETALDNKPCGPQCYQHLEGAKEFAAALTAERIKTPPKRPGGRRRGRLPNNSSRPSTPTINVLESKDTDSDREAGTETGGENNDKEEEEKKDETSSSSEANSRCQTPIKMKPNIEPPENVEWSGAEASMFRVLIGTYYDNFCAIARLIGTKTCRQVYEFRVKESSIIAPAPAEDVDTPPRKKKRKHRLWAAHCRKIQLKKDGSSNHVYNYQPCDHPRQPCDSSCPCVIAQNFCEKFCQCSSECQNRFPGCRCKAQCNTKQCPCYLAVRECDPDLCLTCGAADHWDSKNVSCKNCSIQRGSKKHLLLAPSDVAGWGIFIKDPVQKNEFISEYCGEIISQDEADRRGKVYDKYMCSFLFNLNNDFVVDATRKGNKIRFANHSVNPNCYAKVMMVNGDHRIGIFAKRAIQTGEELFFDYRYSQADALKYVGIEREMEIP
Sequence of purified human, His-tagged PRC2 complex (Q15022 whole entry partner): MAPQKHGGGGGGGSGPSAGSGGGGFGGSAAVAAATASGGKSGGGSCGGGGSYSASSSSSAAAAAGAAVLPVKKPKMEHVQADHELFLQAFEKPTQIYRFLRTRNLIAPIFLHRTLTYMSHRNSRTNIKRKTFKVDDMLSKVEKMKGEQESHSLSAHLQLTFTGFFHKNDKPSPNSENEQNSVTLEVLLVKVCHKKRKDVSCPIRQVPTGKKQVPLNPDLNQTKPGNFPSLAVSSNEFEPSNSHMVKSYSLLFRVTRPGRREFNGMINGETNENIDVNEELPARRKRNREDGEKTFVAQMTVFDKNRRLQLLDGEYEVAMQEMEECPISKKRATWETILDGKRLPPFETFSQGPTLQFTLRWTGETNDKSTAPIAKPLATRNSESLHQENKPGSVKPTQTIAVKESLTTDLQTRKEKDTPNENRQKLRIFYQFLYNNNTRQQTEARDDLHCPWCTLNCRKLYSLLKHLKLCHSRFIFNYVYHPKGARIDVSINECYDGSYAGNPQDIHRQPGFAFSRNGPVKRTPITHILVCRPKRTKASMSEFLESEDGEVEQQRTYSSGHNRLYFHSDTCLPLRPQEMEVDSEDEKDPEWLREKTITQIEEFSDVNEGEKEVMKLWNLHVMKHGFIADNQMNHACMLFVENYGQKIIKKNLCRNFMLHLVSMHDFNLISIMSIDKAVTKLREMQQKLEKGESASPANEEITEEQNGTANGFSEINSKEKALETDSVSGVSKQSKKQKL
Sequence of purified human, His-tagged PRC2 complex (Q6ZN18 whole entry partner): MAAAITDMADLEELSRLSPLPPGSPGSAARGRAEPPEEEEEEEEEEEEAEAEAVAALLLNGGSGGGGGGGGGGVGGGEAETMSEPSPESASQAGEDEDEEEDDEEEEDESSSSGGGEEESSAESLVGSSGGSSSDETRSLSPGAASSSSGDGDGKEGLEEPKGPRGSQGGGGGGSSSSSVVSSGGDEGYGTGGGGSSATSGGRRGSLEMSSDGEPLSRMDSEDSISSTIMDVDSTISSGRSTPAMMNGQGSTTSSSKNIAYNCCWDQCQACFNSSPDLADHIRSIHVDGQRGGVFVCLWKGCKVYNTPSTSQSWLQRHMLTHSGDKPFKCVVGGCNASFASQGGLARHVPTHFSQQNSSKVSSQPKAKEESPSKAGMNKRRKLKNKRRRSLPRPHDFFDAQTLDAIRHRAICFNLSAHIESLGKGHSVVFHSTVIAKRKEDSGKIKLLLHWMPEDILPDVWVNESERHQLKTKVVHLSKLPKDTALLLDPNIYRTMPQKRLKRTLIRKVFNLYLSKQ
Sequence of purified human, His-tagged PRC2 complex (Q09028 whole entry partner): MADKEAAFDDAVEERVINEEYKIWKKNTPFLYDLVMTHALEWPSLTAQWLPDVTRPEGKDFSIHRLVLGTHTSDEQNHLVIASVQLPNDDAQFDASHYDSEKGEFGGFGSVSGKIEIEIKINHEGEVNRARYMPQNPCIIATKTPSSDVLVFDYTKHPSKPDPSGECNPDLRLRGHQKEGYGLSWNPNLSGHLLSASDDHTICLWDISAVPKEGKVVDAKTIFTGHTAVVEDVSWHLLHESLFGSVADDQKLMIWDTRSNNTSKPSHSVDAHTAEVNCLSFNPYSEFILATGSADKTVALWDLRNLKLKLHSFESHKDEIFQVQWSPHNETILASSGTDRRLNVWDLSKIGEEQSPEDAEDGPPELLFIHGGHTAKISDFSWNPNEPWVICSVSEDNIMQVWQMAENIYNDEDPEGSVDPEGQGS

This experiment has as its target purified human, His-tagged PRC2 complex (Homo sapiens (Human), UniProt O75530). Put plainly: Hot Spot HMT assay, inhibition of PRC2 enzymatic activity. It counts as biochemical. Conditions: 10 nM PRC2 complex, 1 μM 3H-SAM, core histone H3, 10-point dose-response. In short, it runs like this:
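Methyl transfer from 1 μM tritiated SAM onto 0.05 mg/ml core histone H3, catalysed by 10 nM His/Flag-tagged human PRC2 holoenzyme, was run 1 hr at 30° C after a 20 min compound preincubation. Serial dilutions began at 1.0 μM; product captured on filters and counted.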
In turn, `Cc1nn(C(C)C)cc1-c1cnc(NCc2c(F)ccc3c2CCO3)n2cc(C#N)nc12` [Example 23, 5-(((5-fluoro-2,3-dihydrobenzofuran-4-yl)methyl)amino)-8-(1-isopropyl-3-methyl-1H-pyrazol-4-yl)imidazo[1,2-c]pyrimidine-2-carbonitrile] returned an IC50 of 100 to 500 nM.

Regarding `N#Cc1cn2c(NCc3c(F)ccc4c3CCO4)ncc(-c3ccc4c(c3)CCNC4)c2n1` [Example 203, 5-(((5-fluoro-2,3-dihydrobenzofuran-4-yl)methyl)amino)-8-(1,2,3,4-tetrahydroisoquinolin-6-yl)imidazo[1,2-c]pyrimidine-2-carbonitrile], the IC50 fell in the range of 100 to 500 nM.

As for `CC(c1ccc(-c2cnc(NCc3c(F)ccc4c3CCO4)n3cc(C#N)nc23)cc1)N(C)C` (centres unmarked) [Example 199, 8-(4-(1-(dimethylamino)ethyl)phenyl)-5-(((5-fluoro-2,3-dihydrobenzofuran-4-yl)methyl)amino)imidazo[1,2-c]pyrimidine-2-carbonitrile], the IC50 was under 100 nM. For `N#Cc1cn2c(NCc3c(F)ccc4c3CCO4)ncc(-c3cncc(F)c3)c2n1` [Example 97, 5-(((5-fluoro-2,3-dihydrobenzofuran-4-yl)methyl)amino)-8-(5-fluoropyridin-3-yl)imidazo[1,2-c]pyrimidine-2-carbonitrile], the IC50 is under 100 nM. Under `Cc1cc(-c2cnc(NCc3cccc4c3OCO4)n3cc(C#N)nc23)n(C)n1` [Example 27, 5-((benzo[d][1,3]dioxol-4-ylmethyl)amino)-8-(1,3-dimethyl-1H-pyrazol-5-yl)imidazo[1,2-c]pyrimidine-2-carbonitrile] stands over 500 nM; under `CN(C)Cc1cc(-c2cnc(NCc3c(F)ccc4c3CCO4)n3cc(C#N)nc23)n(C)n1` [Example 210, 8-(3-((dimethylamino)methyl)-1-methyl-1H-pyrazol-5-yl)-5-(((5-fluoro-2,3-dihydrobenzofuran-4-yl)methyl)amino)imidazo[1,2-c]pyrimidine-2-carbonitrile], under 100 nM; under `[2H]C([2H])([2H])N(Cc1ccc(-c2cnc(NCc3c(F)ccc4c3CCO4)n3cc(C#N)nc23)c(C)c1)C([2H])([2H])[2H]` [Example 202, 8-(4-((bis(methyl-d3)amino)methyl)-2-methylphenyl)-5-(((5-fluoro-2,3-dihydrobenzofuran-4-yl)methyl)amino)imidazo[1,2-c]pyrimidine-2-carbonitrile], under 100 nM.

Compound `N#Cc1cncc(-c2cnc(NCc3c(F)ccc4c3CCO4)n3cc(C#N)nc23)c1` [Example 95, 8-(5-cyanopyridin-3-yl)-5-(((5-fluoro-2,3-dihydrobenzofuran-4-yl)methyl)amino)imidazo[1,2-c]pyrimidine-2-carbonitrile] showed a concentration for half-maximal inhibition (IC50) of under 100 nM.

`Cc1cc(C2CCCN2)ccc1-c1cnc(NCc2c(F)ccc3c2CCO3)n2cc(C#N)nc12` (single isomer, unassigned) [Example 213, 5-(((5-fluoro-2,3-dihydrobenzofuran-4-yl)methyl)amino)-8-(2-methyl-4-(pyrrolidin-2-yl)phenyl)imidazo[1,2-c]pyrimidine-2-carbonitrile] displayed an IC50 of under 100 nM.

Consider `CNCc1ccc(-c2cnc(NCc3c(F)ccc4c3CCO4)n3cc(C#N)nc23)c(C)c1` [Example 196, 5-(((5-fluoro-2,3-dihydrobenzofuran-4-yl)methyl)amino)-8-(2-methyl-4-((methylamino)methyl)phenyl)imidazo[1,2-c]pyrimidine-2-carbonitrile], for which the IC50 was in the range of 100 to 500 nM. Under `COC1CN(Cc2ccc(-c3cnc(NCc4c(F)ccc5c4CCO5)n4cc(C#N)nc34)cc2)C1` [Example 50, 5-(((5-fluoro-2,3-dihydrobenzofuran-4-yl)methyl)amino)-8-(4-((3-methoxyazetidin-1-yl)methyl)phenyl)imidazo[1,2-c]pyrimidine-2-carbonitrile] stands under 100 nM; under `N#Cc1cn2c(NCc3c(F)ccc4c3CCO4)ncc(-c3n[nH]cc3Br)c2n1` [Example 232, 8-(4-bromo-1H-pyrazol-3-yl)-5-(((5-fluoro-2,3-dihydrobenzofuran-4-yl)methyl)amino)imidazo[1,2c]pyrimidine-2-carbonitrile], 100 to 500 nM. Under `CN(C)C(=O)c1cc(F)c(-c2cnc(NCc3c(F)ccc4c3CCO4)n3cc(C#N)nc23)cc1F` [Example 38, 4-(2-cyano-5-(((5-fluoro-2,3-dihydrobenzofuran-4-yl)methyl)amino)imidazo[1,2-c]pyrimidin-8-yl)-2,5-difluoro-N,N-dimethylbenzamide] stands under 100 nM.

`Cc1ncncc1-c1cnc(NCc2c(F)ccc3c2CCO3)n2cc(C#N)nc12` [Example 110, 5-(((5-fluoro-2,3-dihydrobenzofuran-4-yl)methyl)amino)-8-(4-methylpyrimidin-5-yl)imidazo[1,2-c]pyrimidine-2-carbonitrile] gave a half-maximal inhibitory concentration (IC50) of under 100 nM. Under `N#Cc1cn2c(NCc3c(F)ccc4c3CCO4)ncc(-c3ccc(C4CC(=O)N4)cc3)c2n1` (centres unmarked) [Example 222, 5-(((5-fluoro-2,3-dihydrobenzofuran-4-yl)methyl)amino)-8-(4-(4-oxoazetidin-2-yl)phenyl)imidazo[1,2-c]pyrimidine-2-carbonitrile] stands under 100 nM. Then `CN(C)C1(c2ccc(-c3cnc(NCc4c(F)ccc5c4CCO5)n4cc(C#N)nc34)cc2)CC1` [Example 171, 8-(4-(1-(dimethylamino)cyclopropyl)phenyl)-5-(((5-fluoro-2,3-dihydrobenzofuran-4-yl)methyl)amino)imidazo[1,2-c]pyrimidine-2-carbonitrile], with under 100 nM; and `N#Cc1cn2c(NCc3c(F)ccc4c3CCO4)ncc(-c3cccnc3CO)c2n1` [Example 148, 5-(((5-fluoro-2,3-dihydrobenzofuran-4-yl)methyl)amino)-8-(2-(hydroxymethyl)pyridin-3-yl)imidazo[1,2-c]pyrimidine-2-carbonitrile], with under 100 nM; and `Cc1c(-c2cnc(NCc3c(F)ccc4c3CCO4)n3cc(C#N)nc23)cnc(CN(C)C)c1F` [Example 233, 8-(6-((dimethylamino)methyl)-5-fluoro-4-methylpyridin-3-yl)-5-(((5-fluoro-2,3-dihydrobenzofuran-4-yl)methyl)amino)imidazo[1,2-c]pyrimidine-2-carbonitrile], with under 100 nM. On to `CN(C)CCc1cccc(-c2cnc(NCc3c(F)ccc4c3CCO4)n3cc(C#N)nc23)c1` [Example 217, 8-(3-(2-(dimethylamino)ethyl)phenyl)-5-(((5-fluoro-2,3-dihydrobenzofuran-4-yl)methyl)amino)imidazo[1,2-c]pyrimidine-2-carbonitrile], for which the IC50 was under 100 nM. Consider `N#Cc1cn2c(NCc3c(F)ccc4c3CCO4)ncc(-c3cnccc3Cl)c2n1` [Example 109, 8-(4-chloropyridin-3-yl)-5-(((5-fluoro-2,3-dihydrobenzofuran-4-yl)methyl)amino)imidazo[1,2-c]pyrimidine-2-carbonitrile], for which the IC50 was under 100 nM. Then `CNC(=O)c1ccc(-c2cnc(NCc3c(F)ccc4c3CCO4)n3cc(C#N)nc23)cc1` [Example 186, 4-(2-cyano-5-(((5-fluoro-2,3-dihydrobenzofuran-4-yl)methyl)amino)imidazo[1,2-c]pyrimidin-8-yl)-N-methylbenzamide], with under 100 nM; and `CN(C)C(=O)c1cc(Cl)c(-c2cnc(NCc3c(F)ccc4c3CCO4)n3cc(C#N)nc23)cc1F` [Example 35, 5-chloro-4-(2-cyano-5-(((5-fluoro-2,3-dihydrobenzofuran-4-yl)methyl)amino)imidazo[1,2-c]pyrimidin-8-yl)-2-fluoro-N,N-dimethylbenzamide], with under 100 nM; and `CCOP(=O)(OCC)c1ccc(-c2cnc(NCc3c(F)ccc4c3CCO4)n3cc(C#N)nc23)cc1` [Example 164, diethyl (4-(2-cyano-5-(((5-fluoro-2,3-dihydrobenzofuran-4-yl)methyl)amino)imidazo[1,2-c]pyrimidin-8-yl)phenyl)phosphonate], with under 100 nM. Under `Cc1ccncc1-c1cnc(NCc2c(F)ccc3c2CCO3)n2cc(C#N)nc12` [Example 98, 5-(((5-fluoro-2,3-dihydrobenzofuran-4-yl)methyl)amino)-8-(4-methylpyridin-3-yl)imidazo[1,2-c]pyrimidine-2-carbonitrile] stands under 100 nM; under `Cc1nc(C2CC2)ncc1-c1cnc(NCc2c(F)ccc3c2CCO3)n2cc(C#N)nc12` [Example 25, 8-(2-cyclopropyl-4-methylpyrimidin-5-yl)-5-(((5-fluoro-2,3-dihydrobenzofuran-4-yl)methyl)amino)imidazo[1,2-c]pyrimidine-2-carbonitrile], 100 to 500 nM; under `Cc1nn(C(C)C)cc1-c1cnc(NCc2c(F)ccc3c2CCO3)n2cc(C(N)=O)nc12` [Example 13, 5-(((5-fluoro-2,3-dihydrobenzofuran-4-yl)methyl)amino)-8-(1-isopropyl-3-methyl-1H-pyrazol-4-yl)imidazo[1,2-c]pyrimidine-2-carboxamide], under 100 nM.

In turn, `N#Cc1cn2c(NCc3c(F)ccc4c3CCO4)ncc(-c3cccnn3)c2n1` [Example 142, 5-(((5-fluoro-2,3-dihydrobenzofuran-4-yl)methyl)amino)-8-(pyridazin-3-yl)imidazo[1,2-c]pyrimidine-2-carbonitrile] yielded an IC50 of under 100 nM. Then `Cn1nccc1-c1cnc(NCc2c(F)ccc3c2CCO3)n2cc(C#N)nc12` [Example 114, 5-(((5-fluoro-2,3-dihydrobenzofuran-4-yl)methyl)amino)-8-(1-methyl-1H-pyrazol-5-yl)imidazo[1,2-c]pyrimidine-2-carbonitrile], with under 100 nM; and `CN(C)CCc1ccc(-c2cnc(NCc3c(F)ccc4c3CCO4)n3cc(C#N)nc23)cc1` [Example 163, 8-(4-(2-(dimethylamino)ethyl)phenyl)-5-(((5-fluoro-2,3-dihydrobenzofuran-4-yl)methyl)amino)imidazo[1,2-c]pyrimidine-2-carbonitrile], with under 100 nM.
